Data on two substances can be found in patent US20240350579A1 (priority 2020, published 2024).

In data set [1] the test system is P. aeruginosa. Kind of data set: Antibacterial assay of PEPXR hydrogels. Format: cell-based. An excerpt:
(§1) Thus, the peptide hydrogels described herein may generally comprise a high content of positively charged arginine (R) amino acids.
The peptide hydrogel is believed to directly lyse bacterial membranes indiscriminately. […] The mechanism additionally makes it more difficult for the treated microorganisms to gain antibiotic resistance.

The subject of data set [2] is S. aureus. Nature of the data set: Antibacterial assay of PEPXR hydrogels. It is filed as cell-based.
Description: as §1

The subject of data set [3] is E. coli. Nature of the data set: Antibacterial assay of PEPXR hydrogels. Format: cell-based.
Description: as §1

Data set [4] in a line: Net peptide charge and isoelectric point. It is filed as physicochemical. To be noted: pH 7. An excerpt:
The peptide may be purified. For example, the peptide may be lyophilized. […] Other peptides are within the scope of the disclosure.
Exemplary peptides having a charge of +5 to +9 include […](d)[…], […](d)[…], and […](d)[…]. In other embodiments, the purified peptide may be substantially neutral. […] Net charge may be selected by peptide design. Design of electrostatic charge in the peptide hydrogel may allow control of charge interaction with cell membrane and proteins.

On to VKVRVRVRVPPTRVRVRVKV [PEP6R], for which the “antimicrobial activity (in words)” value in data set [1], in data set [2] and in data set [3] was “potent antimicrobial activity” in each case.
For VEVSVSVEV(d)PPTEVSVEVEV, the net charge entry in data set [4] is given as “net negative charge”.
